Test system: mesoCAR TILs against EMMESO tumor cells
Assay: Ex vivo killing and cytokine release assays with blocking agents
Assay type: cell-based, human
Details: blocking agent added ex vivo
Experimental: T cell Effector Assays. Effector T cells were cocultured with firefly luciferase expressing tumor cells at different ratios for a specified period time. At the end of the co-culture incubation period, supernatant was saved for IFN levels by ELISA (Biolegend #430106), wells were washed, and remaining tumor cells were lysed with 1× cell lysis buffer for 30 minutes. The luciferase activity in the lysates was analyzed using the Luciferase Assay System on a GloMax Multi Detection System (Promega.) Results are reported as percent killing based on luciferase activity in wells with tumor, but no T cells. (% killing=100-((RLU from well with effector and target cell coculture)/(RLU from well with target cells)×100)). Effector-to-target ratios represent total T cells per target cell.
Given these expression data, the potential functional importance of specific inhibitory pathways in mesoCAR TILs was studied by introducing available blocking agents during the ex vivo killing and cytokine release assays. […] The relatively high dose of 10 ug/ml anti-PDL1 antibody was based on previously published investigations on cancer immunotherapy.

O.O.O.O.O.O.O.O.O.O=C([O-])[C@@H]1[O][Sb]2([O-])([O][Sb]34([OH])[O][C@H]([C@H](O)CO)[C@H]([O]3)[C@H](C(=O)[O-])[O]4)[O][C@H]([C@H](O)CO)[C@@H]1[O]2.[Na+].[Na+].[Na+] [SSG, sodium stibogluconate]
killing ability of cryo mesoCAR T cells: slightly inhibited
killing activity of mesoCAR TILs: significantly increased
tumor-induced IFN secretion of mesoCAR TILs: significantly increasing

— patent publication US11999794B2, “Human mesothelin chimeric antigen receptors and uses thereof” (Novartis AG, priority 2013, dated 2024)
